System: serum lipids and serum lipid hydroperoxide
Experiment: Pharmacological test method A for anti-hyperlipidemic activity (serum lipids, 2 weeks feeding)
Assay type: in vivo, male Wistar strain rats
Conditions: for AI [(TC - HDL-C)/(HDL-C)] / HDL-C in serum / LPO in serum / PL in serum / TC in serum / TG in serum: 1% in hyperlipidemic diet, 2 weeks; for AI % of diff. / AI Diff. / HDL-C % of diff. / HDL-C Diff. / LPO % of diff. / LPO Diff. / PL % of diff. / PL Diff. / TC % of diff. / TC Diff. / TG % of diff. / TG Diff.: versus control group
Method: Male Wistar strain rats (100±lg, each 10 rats were formed into a group) were used as test animals. Diet for the control group was prepared by thorough mixing of 20% casein, 62.5% glucose, 10% hydrogenated coconut oil, 2% agar powder, 4% vitamin-containing salt mixture, 1% cholesterol, and 0.5% cholic acid (this composition is described by Fukushima et al, in "Yakugaku Zassi", 89, No. 6, pp. 857-862 (1962)). Diet for the test groups was prepared by good mixing of 1% each of cycloartenol, 24-methylenecycloartanol, and cyclobranol with the control group's diet. Each rat was kept in a cage at a constant temperature of 23±1° C. and a constant R.H. of 55±5% for 2 weeks, during which 10 g/day of the prescribed was given. Finally the rats were fasted from food except water for 16 hours (from 4 p.m. of the 14th test day to 8 a.m. of the 15th test day), and under anesthesia with pentbarbital sodium (tradename: Nembutal), blood was taken from each rat through the descending abdominal arota. Then, TC, HDL-C, TG, PL, and LPO in the serum were measured in the manner that will be described below.
A TC kit-K (supplied by Nippon Shoji Kaisha, Ltd.) was used. The principle of this determination is as follows: The ester of cholesterol in the serum is hydrolyzed with cholesterol-ester hydrolase into free cholesterol and fatty acids. All the free cholesterol is oxidized with cholesterol oxydase to form Δ^4 -cholestenone and hydrogen peroxide. Phenol and 4-aminoantipyrin are oxidatively condensed together by the formed hydrogen peroxide and peroxydase. The produced red quinone coloring matter is measured by colorimetry for absorbance at 500 nm using a spectrophotometer, thereby determining the TC:
The color-developing liquid (3.0 ml) is well mixed with the sample serum (0.02 ml). The mixture once heated at 37° C. for 15 minutes, is measured for absorbance at 500 nm with a spectrophotometer. The found absorbance is denoted by EA. On the other hand, the color-developing liquid (3.0 ml) is well mixed with the standard solution. The mixture is treated and measured for absorbance at 500 nm in the same manner as the above. This found absorbance is denoted by ES. Both EA and ES are determined with reference to the value of the blank test conducted using the color-developing liquid (3.0 ml) alone. [formula]
An HDL-C kit-N (supplied by Nippon Shoji Kaisha, Ltd.) was used. […] (VLDL) and lo density lipoprotein (LDL) in the serum is precipitated by the action of heparin. The precipitate is separated by centrifugation. High density lipoprotein (HDL) is dissolved in the separated supernatant. Esters of cholesterol in this fraction is hydrolyzed with cholesterol-ester hydrolase into free cholesterol and fatty acids. All the free cholesterol is oxidized with cholesterol oxydase to form Δ^4 -cholestenone and hydrogen peroxide. Phenol and 4-aminoantipyrine are oxidatively condensed together by the formed hydrogen peroxide and peroxydase. The produced red quinone coloring matter is measured by colorimetry for absorbance at 500 nm using a spectrophotometer, thereby determining the HDL-C.
A PL kit-K (supplied by Nippon Shoji Kaisha, Ltd.) was used for the determination. Lecithin, sphingomyelin, and lysolecithin are decomposed by phospholipase D into choline and phosphatidic acid, N-acylsphingosyl phosphate, or lysophosphatidic acid, respectively. The resulting choline is quantitatively decomposed by choline oxydase into hydrogen peroxide and betaine. With this hydrogen peroxide, and aid of peroxydase, phenol and 4-aminoantipyrin are condensed into red quinone pigment, then the absorbance at 500 nm of which is measured with a spectrophotometer, thereby determining the PL.
Serum TG level was determined by means of a triglyceride test kit (supplied by Wako Pure Chemical Industries, Ltd.) in which acetylacetone is used for a reagent, in the following manner: Serum proteins are precipitated, when isopropyl alcohol and the sample serum are mixed. […]

| SMILES | AI [(TC - HDL-C)/(HDL-C)] | HDL-C in serum | LPO in serum | PL in serum | TC in serum | TG in serum | AI % of diff. | AI Diff. | HDL-C % of diff. | HDL-C Diff. | LPO % of diff. | LPO Diff. | PL % of diff. | PL Diff. | TC % of diff. | TC Diff. | TG % of diff. | TG Diff. |
| --- | --- | --- | --- | --- | --- | --- | --- | --- | --- | --- | --- | --- | --- | --- | --- | --- | --- | --- |
| C=C(CCC(C)C1CCC2(C)C3CCC4C(C)(C)C(OC(=O)C=Cc5ccc(O)c(O)c5)CCC45CC35CCC12C)C(C)C (stereo not drawn) [Example 82, 24-Methylenecycloartanyl ester of 3,4-dihydroxycinnamic acid] | 1.228 | 87.9 mg/dL | 2.08 nmol/mL | 173.9 mg/dL | 195.8 mg/dL | 42.3 mg/dL | -27.1% | -0.456 | +8.7% | +7.0 mg/dl | -9.8% | -0.23 nmol/mL | -3.2% | -5.8 mg/dL | -9.8% | -21.3 mg/dL | -1.2% | -0.5 mg/dL |
| COc1ccc(C(=O)OC2CCC34CC35CCC3(C)C(C(C)CCC=C(C)C)CCC3(C)C5CCC4C2(C)C)cc1 (stereo not drawn) [Example 14, cycloartenyl-p-methoxybenzoate] | 1.275 | 64.1 mg/dL | 1.81 nmol/mL | 120.9 mg/dL | 145.8 mg/dL | 25.4 mg/dL | -27.8% | -0.492 | +6.5% | +3.9 mg/dl | -28.5% | -0.72 nmol/mL | -11.6% | -15.8 mg/dL | -12.5% | -20.8 mg/dL | -6.6% | -1.8 mg/dL |
| CC(=O)Nc1ccc(C(=O)OC2CCC34CC35CCC3(C)C(C(C)CCC=C(C)C)CCC3(C)C5CCC4C2(C)C)cc1 (stereo not drawn) [Example 20, cycloartenyl-p-acetamidobenzoate] | 0.867 | 90.4 mg/dL | 2.02 nmol/mL | 143.3 mg/dL | 168.8 mg/dL | 35.2 mg/dL | -29.1% | -0.355 | +4.5% | +3.9 mg/dl | -9.7% | -0.22 nmol/mL | -17.0% | -29.3 mg/dL | -12.2% | -23.4 mg/dL | -3.0% | -1.1 mg/dL |
| C=C(CCC(C)C1CCC2(C)C3CCC4C(C)(C)C(OC(=O)c5cccc(N)c5)CCC45CC35CCC12C)C(C)C (stereo not drawn) [Example 100, 24-Methylenecyloartanyl ester of m-aminobenzoic acid] | 0.766 | 90.1 mg/dL | 1.68 nmol/mL | 155.6 mg/dL | 159.1 mg/dL | 34.3 mg/dL | -37.3% | -0.456 | +4.2% | +3.6 mg/dl | -25.2% | -0.56 nmol/mL | -10.2% | -17.6 mg/dL | -17.2% | -33.1 mg/dL | -5.5% | -2.0 mg/dL |
| C=C(CCC(C)C1CCC2(C)C3CCC4C(C)(C)C(OC(=O)c5ccc(O)c(OC)c5)CCC45CC35CCC12C)C(C)C (stereo not drawn) [Example 86, 24-Methylenecycloartanyl ester of 4-hydroxy-3-methoxybenzoic acid] | 0.802 | 91.9 mg/dL | 2.06 nmol/mL | 163.2 mg/dL | 165.6 mg/dL | 33.1 mg/dL | -20.0% | -0.200 | -4.5% | -4.3 mg/dL | -11.6% | -0.27 nmol/mL | -9.8% | -17.7 mg/dL | -14.0% | -27.0 mg/dL | -0.3% | -0.1 mg/dL |
| COc1cc(C=CC(=O)OC2CCC34CC35CCC3(C)C(C(C)CCC(C)=C(C)C)CCC3(C)C5CCC4C2(C)C)ccc1O (stereo not drawn) [Example 100-2, cyclobranyl-4-hydroxy-3-methoxycinnamate] | 0.772 | 94.1 mg/dL | 1.59 nmol/mL | 143.0 mg/dL | 166.7 mg/dL | 21.6 mg/dL | -49.1% | -0.745 | +18.5% | +15.1 mg/dl | -29.8% | -0.68 nmol/mL | -17.6% | -30.6 mg/dL | -18.7% | -38.4 mg/dL | -37.0% | -12.7 mg/dL |
| CCOc1cc(C(=O)OC2CCC34CC35CCC3(C)C(C(C)CCC(C)=C(C)C)CCC3(C)C5CCC4C2(C)C)ccc1O (stereo not drawn) [Example 62, cyclobranyl-3-ethoxy-4-hydroxybenzoate] | 0.474 | 108.2 mg/dL | 1.94 nmol/mL | 156.5 mg/dL | 159.5 mg/dL | 32.0 mg/dL | -52.7% | -0.528 | +12.5% | +12.0 mg/dl | -16.8% | -0.39 nmol/mL | -13.5% | -24.4 mg/dL | 17.2% | -33.1 mg/dL | -3.6% | -1.2 mg/dL |
| CC(C)=CCCC(C)C1CCC2(C)C3CCC4C(C)(C)C(OC(=O)c5ccccc5[N+](=O)[O-])CCC45CC35CCC12C (stereo not drawn) [Example 16, cycloartenyl-o-nitrobenzoate] | 1.529 | 59.4 mg/dL | 2.04 nmol/mL | 140.1 mg/dL | 150.2 mg/dL | 22.0 mg/dL | -17.2% | -0.318 | +1.2% | +0.7 mg/dl | -12.8% | -0.30 nmol/mL | -5.6% | -8.3 mg/dL | -10.1% | -16.9 mg/dL | -11.3% | -2.8 mg/dL |
| C=C(CCC(C)C1CCC2(C)C3CCC4C(C)(C)C(OC(=O)C=Cc5ccc(OC(C)=O)cc5)CCC45CC35CCC12C)C(C)C (stereo not drawn) [Example 83, 24-Methylenecycloartanyl ester of p-acetoxycinnamic acid] | 1.059 | 93.3 mg/dL | 2.02 nmol/mL | 162.1 mg/dL | 192.1 mg/dL | 41.1 mg/dL | -37.1% | -0.625 | +15.3% | +12.4 mg/dl | -12.7% | -0.29 nmol/mL | -9.8% | -17.6 mg/dL | -11.5% | -25.0 mg/dL | -4.0% | -1.7 mg/dL |

Source: patent US4748161A, “Triterpenyl esters of organic acids and hypolipidemic agents composed of them” (Amano Pharmaceutical Co., Ltd., priority 1984, dated 1988)
